Laboratory results published in US20010039041A1, “Immunosuppressive sesbanimide compositions and methods of treatment using same” (priority 1995, published 2001).
≈ marks a conversion by molar mass, not a printed value. Where “and” joins values, the source holds several entries; their conditions need not be identical. Equal values may be shown once. Read-outs that look alike come from different tables or passages of the source.

Key:
[1] = system: Agrobacterium species strain PH-103; experiment: Antibiotic sensitivity (Difco sensitivity discs); assay type: cell-based, Agrobacterium sp.; conditions: strain PH-103, ATCC 231 basal medium, 27° C.
Protocol: The culture was incubated at 27° C. and records of the results were made after suitable incubation times. All media were prepared with 2.7% Instant Ocean Salts and pH was approximately neutral (7-7.4). The description of the culture and test results are as follows: […]

[2] = Toxicology (MTD, LD50) in mice; assay type: in vivo, mouse; conditions: mouse, in vivo; CD-1 or CB6F1 mice
Protocol: (§1) The MTD establishes the parameters to establish in vivo dosages initiated for studying the Graft-v-Host reaction and skin grafting. The Swiss conventional mouse (Charles River CD-1) is used in a weight range from 18-30 g.
(§2) A saline solution containing 5% non-denatured EtOH and a drop of Tween-80 detergent is used a vehicle for dilution. Stirring and sonication are utilized to effect solution or suspension of the composition. The composition is injected within one hour of preparation. Animals are observed for five days (MTD) after injection for toxic symptoms and/or death. Group weights are taken D0 and D5. Surviving animals are sacrificed on D5 (MTD). A ‘Daily Logsheet’ used in the toxicity studies is appended.

CD-1 or CB6F1 Mice = experiment: Toxicology (MTD, LD50) in mice; assay type: in vivo, mouse
Protocol: as §1, §2

[3] = system: mixed lymphocytes from Balb/c (H-2d) and C57BI/6 (H-2b) mice; experiment: Murine Mixed Lymphocyte Reaction (MLR), 3H-thymidine incorporation; assay type: cell-based; conditions: for IC50: Mus musculus, Lymphocyte; for Index Cytotox./Activity: ratio LcV IC50 / MLR IC50
Protocol: Mixed Lymphocyte Reaction (MLR)
The MLR is an in vitro test of cellular immunity in which murine lymphocytes from genetically dissimilar animals are cocultured to mutually induce cell proliferation (i.e., two-way MLR method). Mixed cell suspensions, together with the test compound, are incubated for 96 hours and subsequently pulsed for 15 hours with tritiated-thymidine (3H-Thy), a radioisotopically labelled nucleic acid. Tritiated-thymidine is incorporated into the DNA of proliferating cells. Data from the MLR is generated as dpm of radioactivity which is then expressed as a percentage of cellular activity, relative to control, using the following reduced formula: [formula]
A 50% inhibitory concentration (IC50) value was interpolated for sesbanimide containing fractions tested. A ratio between cytotoxicity, as determined from the LcV described below, and activity in the MLR is also presented. A high ratio distinguishes noncytotoxic immunosuppression from general cytotoxicity.
Reconstituted extract (10 μl) is added in two sets of duplicates into wells of a 96-well microtiter plate and evaporated to dryness at room temperature. […] To the other set of sample duplicates is added complete media without cells so as to provide for background color control data. All plated are incubated in a 5% CO2 incubator for 96 hours and pulsed for 15 hours with 100 μl containing 1 μCi/well tritiated-thymidine (^3H-Thy). The plates are harvested onto glass fiber filter discs using an INOTECH harvester. The filter discs are counted directly using an INOTECH dry scintillation counter. The activity of the discs are calculated as a relative proliferative percent of a mean control value as described above.

[4] = system: CB6-F1 mice grafted with Balb/c splenic lymphocytes; conditions: for Alive Day 8 / Optimal Dose: GVHR; for Alive Day 8 / Index: at optimal dose; for Optimal Dose: i.p. per diem for 7 days; for Index: spleen index vs syngeneic control, >1.3 = successful graft rejection
Source text: Graft-vs-Host Reaction (GVHR)
The GVHR used for in vivo screening is a modification of the Simonsen's technique. The F1 hybrid host animal is grafted with immunocompetent spleens cells from a parent strain. The host spleen cells are incompatible to grafted donor cells but are themselves not competent to react against them (shared parental genetic determinants). The rejection mechanism in this model is, therefore, from the graft toward the host. The grafted cells, via intraperitoneal injection, migrate to the host's spleen. There they proliferate in response to the difference in genetic determinants inherited from the other parental strain. The index used to measure the success of the GVHR is spleenomegally (increased spleen weight due to cellular proliferation of grafted lymphocytes). An index of 1.0 is equivalent to the spleen weight of syngeneic grafted controls. An index >1.3 (graft index) is considered to be a successful graft rejection of the recipient animal. Any sample that prevents spienomegaly (<graft index) is considered as an immunosuppressive active. Likewise, enhancement of splenomegaly (>graft index) is due either to immunostimulatory synergy of the response or nonspecific immunostimulation. This assay is a cell-mediated type of response and is the direct in vivo correlate of the MLR.
The GVHR is widely used as an in vivo model in transplantation research laboratories. As in models for delayed sensitivity and allograft rejection, it also has clinical implications, especially in bone marrow transplantation. In this situation, immunocompetent lymphocytes transferred with the transplanted bone marrow cells can recirculate into the host bone marrow. These cells from the graft can react against the host (i.e., graft-vs-host disease) with deleterious consequences.
The highest test dose is selected from a previously determined maximum tolerated dose (MTD) resulting from a once only intraperitoneal (i.p.) injection of two animals/dose (e.g., 400, 100, 40 and 10 mg/kg) These animals are followed for five days to allow for possible toxic side effects of the test compound.
In the GVHR, male, CB6-F1 mice (H2^d+H2^b) are grafted by i.p. injection of 50×106 Balb/c (H2^d) splenic lymphocytes conditioned in high-glucose (4500 mg/L) Dulbecco's modified Eagles medium. […] Grafted positive controls, nongrafted negative controls and syngeneic grafted animals all receive vehicle i.p. injections during this time. A standard of cyclophosphamide (200 mg/kg) is used. Experimental animals are sacrificed on D8 and spleens removed. The data is reported as a spleen index compared to the weight of the syngeneic control spleen—both corrected for the total body weights of the animals. In addition, the spleens are homogenized and the lymphocytes enumerated and viabilities determined. The data from both determinations are also expressed as a percent immunomodulation of the positive controls. all data is corrected for nonspecific effects measured from nongrafted animals. Moribund animals are sacrificed immediately.

[5] = system: murine lymphocytes (Balb/c); experiment: Lymphocyte Viability / Cytotoxicity Assay (LcV), MTT; assay type: cell-based; conditions: Balb/c lymphocytes, MTT viability (cytotoxicity)
Protocol: (§3) Lymphocyte Cytotoxicity (LcV) Assay
(§4) The LCV is a in vitro cytotoxicity assay for murine lymphocytes designed by the investigator. The LCV is similar to the MLR with the exception that only one cell population (Balb/c) is incubated with the test compound to assess cytotoxicity as distinct from the antiproliferative effects of a test compound. That is, unlike the unambiguous determination of immunostimulation from MLR data, a judgement of immunosuppression can not be immediately interpreted. Cytotoxicity (e.g., due to direct cell lysis) from a compound can occur which would alter viability determinations inherent in the generation of MLR data. […] The percent viable cells is determined by the MTT-thiazolyl blue method after a similar incubation to the MLR of lymphocytes with the test sample. MTT is a substrate converted by mitochoridrial enzymes in living cells to a purple, water-insoluble, formazan crystal. If there is no significant reduction in cell viability, as determined by this detection method, then damaged cells are probably not present for low data values generated in the MLR. Colorimetric data from the LCV is calculated as a percentage of viability, relative to control, using the following formula: [formula]
(§5) A 50% viability, or 50% cytotoxicity, (IC50) value was interpolated for sesbanimide containing fractions tested.
(§6) Lymphocytes are prepared as described above for the MLR with the exception that cells from only one murine strain are prepared (BLAB/c). Reconstituted extract (10 μl) is added in two sets of duplicates into wells of a 96-well microtiter plate and evaporated to dryness at room temperature. Lymphocytes (2.5×10^6 cells/ml) are added to one set of duplicates and to wells containing no sample. Media containing no cells are added to the other set of duplicates to provide background color control data. Plated are incubated in a 5% CO2 incubator for 4 hours and pulsed with MTT-thiazolyl blue for 6-8 hours.

[6] = as above; assay type: cell-based, murine; conditions: Balb/c, mouse, murine lymphocytes (Balb/c); text summary of Table 4
Protocol: as §3, §4, §5, §6

polymyxin
Antibiotic sensitivity [1]: resistant

C=C1COC(O)(C2OCOC(C3CC(=O)NC(=O)C3)C2O)C1C (stereo not drawn) [Sesbanimide, sesbanimide]
LD50 at 7 days [2]: 0.805 mg/kg | Maximum Tolerated (CD-1 or CB6F1 Mice; CD-1 or CB6F1 mice): 0.56 mg/kg | Alive Day 5 (CD-1 or CB6F1 Mice; at maximum tolerated dose, CD-1 or CB6F1 mice): 100% | LD50 determination (CD-1 or CB6F1 Mice; between 1.05 and 0.56 mg/kg/total dose, QD 1-7 experiment in CB6F1 mice): 0.805 mg/kg/total dose | toxicity (CD-1 or CB6F1 Mice; pure compound at 56, 10.5 and 5.6 mg/kg): toxic | total dose showing no toxicity (CD-1 or CB6F1 Mice; pure compound, in vivo): ≤ 0.56 mg/kg | separation of cytotoxicity to biological activity ([3]; LcV vs MLR): > 3 log | IC50 ([3]; in vitro cell-mediated immune response, text summary of Table 4, read-out: biological activity IC50): 0.15 to 3.6 ng/mL (≈ 0.000458 to 0.011 µM) | IC50 ([3]; murine two-way MLR, 96 h incubation, 15 h 3H-Thy pulse, read-out: MLR IC50): 0.15 ng/mL (≈ 0.000458 µM) | Index Cytotox./Activity [3]: 2,777 | Alive Day 8 [4]: 40% | Optimal Dose [4]: 0.2 mg/kg | Index [4]: 0.92 | IC50 ([5]; Mus musculus, Lymphocyte): 0.417 µg/mL (≈ 1.27 µM) | IC50 at 4 h [6]: 0.417 to 3.6 µg/mL (≈ 1.27 to 11 µM)

CCn1cc(C(=O)O)c(=O)c2ccc(C)nc21 [nalidixic acid]
Antibiotic sensitivity [1]: Sensitive

O=P1(N(CCCl)CCCl)NCCCO1 (stereo not drawn) [Cyclophosphamide, cyclophosphamide]
Alive Day 8 [4]: 100% and 60% | Optimal Dose [4]: 200.0 mg/kg | Index [4]: 0.23 and 0.28

sesbanimide
MLR IC50 ([3]; murine two-way MLR, 96 h incubation, 15 h 3H-Thy pulse): <7.5 ng/mL | Index Cytotox./Activity [3]: >1,746 | LcV IC50 [5]: 13.100 µg/mL

CN[C@H](CC(C)C)C(=O)N[C@H]1C(=O)N[C@@H](CC(N)=O)C(=O)N[C@H]2C(=O)N[C@H]3C(=O)N[C@H](C(=O)N[C@H](C(=O)O)c4cc(O)cc(O)c4-c4cc3ccc4O)[C@H](O)c3ccc(c(Cl)c3)Oc3cc2cc(c3O[C@@H]2O[C@H](CO)[C@@H](O)[C@H](O)[C@H]2O[C@H]2C[C@](C)(N)[C@H](O)[C@H](C)O2)Oc2ccc(cc2Cl)[C@H]1O [vancomycin]
Antibiotic sensitivity [1]: resistant
